± gives the expanded uncertainty stated by the source.
Conditions: 100 kPa, Liquid; for viscosity: Falling or rolling sphere viscometry; for speed of sound: Sing-around technique in a fixed-path interferometer; for mass density: Vibrating tube method

| SMILES | viscosity (293.15 K) [mPa·s] | speed of sound (293.15 K) [m/s] | mass density (293.15 K) [kg/m3] | viscosity (298.15 K) [mPa·s] | speed of sound (298.15 K) [m/s] | mass density (298.15 K) [kg/m3] | viscosity (303.15 K) [mPa·s] | speed of sound (303.15 K) [m/s] | mass density (303.15 K) [kg/m3] | viscosity (308.15 K) [mPa·s] | speed of sound (308.15 K) [m/s] | mass density (308.15 K) [kg/m3] | viscosity (313.15 K) [mPa·s] | speed of sound (313.15 K) [m/s] | mass density (313.15 K) [kg/m3] | viscosity (318.15 K) [mPa·s] | speed of sound (318.15 K) [m/s] | mass density (318.15 K) [kg/m3] | viscosity (323.15 K) [mPa·s] | speed of sound (323.15 K) [m/s] | other results |
| --- | --- | --- | --- | --- | --- | --- | --- | --- | --- | --- | --- | --- | --- | --- | --- | --- | --- | --- | --- | --- | --- |
| CCCCCC(=O)O.O=C1CCCCCN1 [ε-caprolactam hexanoate] | 42 ± 1.2 | 1472.7 ± 4.2 | 998.59 ± 3.4 | 30.85 ± 0.9 | 1456 ± 4.2 | 994.69 ± 3.4 | 23.4 ± 0.68 | 1439 ± 4.2 | 990.78 ± 3.3 | 18.11 ± 0.53 | 1421.9 ± 4.2 | 986.88 ± 3.3 | 14.25 ± 0.42 | 1404.8 ± 4.2 | 982.97 ± 3.3 | 11.59 ± 0.34 | 1387.8 ± 4.2 | 979.04 ± 3.3 | 9.44 ± 0.28 | 1370.8 ± 4.2 | mass density (323.15 K): 975.15 ± 3.2 kg/m3; viscosity (328.15 K): 7.91 ± 0.23 mPa·s; speed of sound (328.15 K): 1353.4 ± 4.2 m/s; mass density (328.15 K): 971.24 ± 3.2 kg/m3; viscosity (333.15 K): 6.64 ± 0.19 mPa·s; speed of sound (333.15 K): 1336.8 ± 4.2 m/s; mass density (333.15 K): 967.34 ± 3.2 kg/m3 |
| CC(=O)O.O=C1CCCCCN1 [ε-caprolactam acetate] | 39.81 ± 1.2 | 1523.1 ± 4.2 | 1060.03 ± 3.8 | 29.03 ± 0.85 | 1507 ± 4.2 | 1055.92 ± 3.8 | 21.92 ± 0.64 | 1489.7 ± 4.2 | 1051.83 ± 3.8 | 17.03 ± 0.5 | 1472.8 ± 4.2 | 1047.74 ± 3.7 | 13.68 ± 0.4 | 1456.1 ± 4.2 | 1043.65 ± 3.7 | 11.1 ± 0.32 | 1439.3 ± 4.2 | 1039.56 ± 3.7 | 9.19 ± 0.27 | 1422.6 ± 4.2 | mass density (323.15 K): 1035.46 ± 3.6 kg/m3; viscosity (328.15 K): 7.67 ± 0.22 mPa·s; speed of sound (328.15 K): 1406 ± 4.2 m/s; mass density (328.15 K): 1031.37 ± 3.6 kg/m3; viscosity (333.15 K): 6.48 ± 0.19 mPa·s; speed of sound (333.15 K): 1389.5 ± 4.2 m/s; mass density (333.15 K): 1027.28 ± 3.6 kg/m3 |
| CCCCCC(=O)O.O=C1CCCN1 [γ-butyrolactam hexanoate] | 14.67 ± 0.43 | 1429.3 ± 4.2 | 1018.78 ± 3.5 | 12.13 ± 0.35 | 1412.8 ± 4.2 | 1014.67 ± 3.5 | 10.16 ± 0.3 | 1396.2 ± 4.2 | 1010.57 ± 3.5 | 8.63 ± 0.25 | 1379.6 ± 4.2 | 1006.47 ± 3.4 | 7.4 ± 0.22 | 1363.2 ± 4.2 | 1002.37 ± 3.4 | 6.42 ± 0.19 | 1346.9 ± 4.2 | 998.27 ± 3.4 | 5.61 ± 0.16 | 1330.7 ± 4.2 | mass density (323.15 K): 994.17 ± 3.4 kg/m3; viscosity (328.15 K): 4.94 ± 0.14 mPa·s; speed of sound (328.15 K): 1314.7 ± 4.2 m/s; mass density (328.15 K): 990.08 ± 3.3 kg/m3; viscosity (333.15 K): 4.39 ± 0.13 mPa·s; speed of sound (333.15 K): 1298.6 ± 4.2 m/s; mass density (333.15 K): 985.98 ± 3.3 kg/m3 |
| O=C1CCCCCN1.O=CO [ε-caprolactam formate] | 30.96 ± 0.9 | 1552 ± 4.2 | 1087.05 ± 4 | 23.92 ± 0.7 | 1536 ± 4.2 | 1082.87 ± 4 | 18.86 ± 0.55 | 1520.2 ± 4.2 | 1078.69 ± 4 | 15.14 ± 0.44 | 1504.4 ± 4.2 | 1074.51 ± 3.9 | 12.36 ± 0.36 | 1488.5 ± 4.2 | 1070.32 ± 3.9 | 10.24 ± 0.3 | 1472.8 ± 4.2 | 1066.13 ± 3.9 | 8.59 ± 0.25 | 1457.9 ± 4.2 | mass density (323.15 K): 1061.95 ± 3.9 kg/m3; viscosity (328.15 K): 7.3 ± 0.21 mPa·s; speed of sound (328.15 K): 1441.1 ± 4.2 m/s; mass density (328.15 K): 1057.77 ± 3.8 kg/m3; viscosity (333.15 K): 6.27 ± 0.18 mPa·s; speed of sound (333.15 K): 1425.1 ± 4.2 m/s; mass density (333.15 K): 1053.59 ± 3.8 kg/m3 |
| CC(=O)O.O=C1CCCN1 [γ-butyrolactam acetate] | 9.36 ± 0.24 | 1514.5 ± 3.2 | 1099.8 ± 2.3 | 7.84 ± 0.2 | 1496.7 ± 3.2 | 1095.35 ± 2.3 | 6.66 ± 0.17 | 1480.9 ± 3.2 | 1090.91 ± 2.3 | 5.72 ± 0.15 | 1464 ± 3.2 | 1086.47 ± 2.2 | 4.96 ± 0.13 | 1447.2 ± 3.2 | 1082.03 ± 2.2 | 4.35 ± 0.11 | 1429.3 ± 3.2 | 1077.57 ± 2.2 | 3.83 ± 0.1 | 1412.5 ± 3.2 | mass density (323.15 K): 1073.12 ± 2.2 kg/m3; viscosity (328.15 K): 3.4 ± 0.09 mPa·s; speed of sound (328.15 K): 1395.7 ± 3.2 m/s; mass density (328.15 K): 1068.69 ± 2.2 kg/m3; viscosity (333.15 K): 3.06 ± 0.08 mPa·s; speed of sound (333.15 K): 1379 ± 3.2 m/s; mass density (333.15 K): 1064.24 ± 2.1 kg/m3 |
| O=C1CCCN1.O=CO [γ-butyrolactam formate] | 7.17 ± 0.19 | 1531.2 ± 3.2 | 1140.78 ± 2.5 | 6.14 ± 0.16 | 1515.7 ± 3.2 | 1136.14 ± 2.5 | 5.32 ± 0.14 | 1500 ± 3.2 | 1131.51 ± 2.5 | 4.64 ± 0.12 | 1484.4 ± 3.2 | 1126.89 ± 2.4 | 4.09 ± 0.11 | 1468.5 ± 3.2 | 1122.25 ± 2.4 | 3.63 ± 0.09 | 1452.9 ± 3.2 | 1117.61 ± 2.4 | 3.25 ± 0.08 | 1437.5 ± 3.2 | mass density (323.15 K): 1112.99 ± 2.4 kg/m3; viscosity (328.15 K): 2.92 ± 0.08 mPa·s; speed of sound (328.15 K): 1422.1 ± 3.2 m/s; mass density (328.15 K): 1108.35 ± 2.4 kg/m3; viscosity (333.15 K): 2.65 ± 0.07 mPa·s; speed of sound (333.15 K): 1406.8 ± 3.2 m/s; mass density (333.15 K): 1103.72 ± 2.3 kg/m3 |
